A word on the bioavailability: it is dose-corrected exposure relative to a reference, in per cent. Low values mean poor availability, high ones good availability. By AUC(0-t) is commonly meant the area under the concentration-time curve up to a stated or last time point. High values mean more exposure, low ones less exposure. Broadly, the half-life is how long it takes for the measured level to halve. In general, Cmax refers to the highest concentration seen after dosing. The term Tmax denotes the time at which the peak concentration occurs. By CLint scaled is commonly meant a measure of how fast metabolising enzymes remove a compound, apart from limits set by blood flow. A higher CLint scaled goes with rapid turnover. The term Papp A→B denotes how fast a substance crosses the layer from the apical side. High values mean ready permeation, low ones poor permeation. Broadly, the Papp B→A is the apparent permeability from the basolateral to the apical side of a cell layer. Broadly, the efflux ratio is a quotient of directional permeabilities that is used to spot active efflux.

Bounds are passed on as bounds.

Data on 2 compounds can be found in patent EP4644389A1, “PRMT5-MTA INHIBITOR” (Suzhou Puhe Biopharma Co., Ltd., priority 2022, dated 2024).

One series relates to HCT116-MTAPdel. Briefly: 2D anti-proliferation assay (CTG luminescence), MTAP-deficient HCT116 cells. It is filed as cell-based. As to conditions: for IC50: Homo sapiens, HCT-116, HCT116 MTAP-deficient cells, 7-10 days incubation, CTG, read-out: HCT116-MTAPdel/IC50/nM; for HCT116 WT/MTAPdel Selectivity: ratio of IC50 HCT116 WT / MTAPdel. Here is the method:
(§1) HCT116 wild-type and MTAP-deficient cells were cultured in MCCOYS 5A medium containing 10% FBS and 1% penicillin-streptomycin and incubated in a 37°C, 5% CO2 incubator. A 40 µL cell suspension was added to each well of a 384-well microplate. Using Echo, 40 nL of the compound at different concentrations were added to each well, followed by incubation in a 37°C, 5% CO2 incubator for 7-10 days. 40 µL of CTG solution (Promega, Cat No. G7573) was added to each well and incubated away from light in a 37°C, 5% CO2 incubator for 30 minutes. Luminescence was measured using an Envision multimode plate reader (Perkin Elmer, Catalog No. Envision 2104). The luminescence signal was proportional to the ATP content in the system, and the ATP content directly reflected the number of viable cells in the system.

The nature of series [1]: Pharmacokinetic evaluation in mice (IV and oral). As to conditions: female, CD1, mouse, in vivo. Here is the method: CD1 female mice were used as test animals, and the compounds were administered orally or intravenously (oral dose of 10 mg/kg; intravenous dose of 2 mg/kg).
Experiment protocol: Three mice per group for oral administration, and three mice per group for intravenous administration. Oral: Plasma samples were collected before administration (0 h) and at 0.25, 0.5, 1, 2, 4, 8, and 24 hours post-administration; Intravenous: Plasma samples were collected before administration (0 h) and at 0.083, 0.25, 0.5, 1, 2, 4, 8, and 24 hours post-administration. The plasma drug concentrations in mice after oral and intravenous administration were determined using LC/MS/MS, and the collected data were analyzed using AB Sciex QTRAP 6500 software.

Another series relates to HCT116-MTAPwt. In words: 2D anti-proliferation assay (CTG luminescence), wild-type HCT116 cells. As to conditions: Homo sapiens, HCT-116, 7-10 days incubation. Type of series: cell-based. Here is the method:
By testing the activity of both of them, the inhibitory effect and selectivity of the molecules of the present invention for PRMT5 at the cellular level were shown.
as §1
ICso value calculation: [formula] • X: Log value of compound concentration • Y: Inhibition rate (%) Table 1: 2D Anti-proliferation Effects of Compounds on HTC116-MTAP del and Wild-type Colorectal Cancer HCT-116 Cell Lines.

Series [2] is described as follows: Liver microsomal stability, human. It is filed as in vitro ADME. As to conditions: human liver microsomes 0.5 mg/mL, compound 1 µM, NADPH 1 mM, 60 minutes. For orientation: Microsomes from liver hold many membrane-bound enzymes, among them those of drug oxidation.
Description: Microsomal stability experiment of the compound. The details are as follows: A microsomal stability test was conducted on the compounds of the present invention. The test compounds were co-incubated with liver microsomes from different species, with or without the addition of NADPH. In the test system, the final concentration of the test compound was 1 µM, the final concentration of NADPH was 1 mM, and the final concentration of liver microsomes was 0.5 mg/mL.
The next series has as its system MDCK-MDR1 cells. In words: MDCK-MDR1 membrane permeability assay. Type of series: in vitro ADME. As to conditions: MDCK-MDR1, Efflux Ratio = Papp (B-A)/Papp (A-B). As to the method: (§2) Evaluation of membrane permeability of the molecules of the present invention to predict their permeability for the brain.
(§3) Specifically: 1. Pre-incubate MDCK-MDR1 cells at a density of 1.56×10^6 cells/mL, inoculate them in a 96-well plate to culture at 37°C for 7 days; 2. Remove the MDCKII-MDR1 plate from the incubator, wash twice with pre-warmed HBSS (10 mM HEPES, pH 7.4), and incubate at 37°C for 30 minutes; 3. Dilute the stock solution of the test compound with DMSO to obtain a 0.2 mM solution, then further dilute it with HBSS (10 mM HEPES, pH 7.4) to prepare a 1 µM working solution. For the blank control group, dilute with DMSO to obtain a 0.2 mM solution, then further dilute with HBSS (10 mM HEPES, pH 7.4) to obtain a 1 µM working solution. The final concentration of DMSO in the culture system is 0.5%; 4. Measure the transport rate of the drug from the apical side to the basolateral side. Add 125 µL of the 1 µM test compound solution into the Transwell insert (apical chamber) and immediately transfer 50 µL of the sample (D0 sample) from the apical chamber to a new 96-well plate. Fill the receptor plate wells (basolateral chamber) with 235 µL HBSS (10 mM HEPES, pH 7.4) and incubate at 37°C for 2 hours; 5. At the end of the incubation, transfer 50 µL of the sample from both the donor side and the acceptor side into the wells of a new 96-well plate, then add four volumes of cold acetonitrile containing the appropriate internal standard (IS). Before the LC-MS/MS analysis, take 100 µL of the supernatant and mix it with an appropriate volume of ultrapure water. Papp = (VA×⌊drug⌋acceptor)/(Area×Time×⌊drug⌋initial,donor) [formula] wherein VA is the volume of the acceptor well (unit: mL), area is the membrane surface area (for Transwell-96 well permeable support, it is 0.143 cm^2), and time is the total transport time (in seconds). Efflux Ratio = Papp (B−A)/Papp (A−B) [formula]

The next series has as its system MDR1 (P-gp). Briefly: MDCK-MDR1 membrane permeability assay. As to conditions: dog; MDCK-MDR1, 1 µM, pH 7.4, 2 hours. Type of series: in vitro ADME. As to the method:
as §2, §3

The next series relates to MDR1. In words: MDCK-MDR1 membrane permeability assay. It is filed as in vitro ADME. As to conditions: dog, pH 7.4; MDCK-MDR1, Efflux Ratio = Papp (B-A)/Papp (A-B). Here is the method:
as §2, §3

The nature of series [3]: Caco-2 membrane permeability assay. As to conditions: human; for efflux ratio: Caco-2, Efflux Ratio = Papp (B-A)/Papp (A-B); for Papp A→B / Papp B→A: Caco-2, apical pH 6.5, basolateral pH 7.4. It is filed as in vitro ADME. As to the method:
(§4) Evaluation of membrane permeability of the molecules of the present invention. Samples will be analyzed using LC-MS to estimate the apparent permeability coefficient (Papp) of the compound in Caco-2 monolayer cells, wherein the pH of the apical chamber is 6.5, and the pH of the basolateral chamber is 7.4. The P-gp efflux transporter, BCRP, and MRP2 inhibitors (50 µM quinidine, 30 µM benzbromarone, and 20 µM sulfasalazine) can block the active efflux transport of the compound. The data will be used for calculating apparent permeability (Papp). Papp = (VA×⌊drug⌋acceptor)/(Area×Time×⌊drug⌋initial,donor) [formula] wherein, VA is the volume of the receptor well (unit: mL), area is the membrane surface area (for Transwell-96 well permeable support, it is 0.143 cm^2), and time is the total transport time (unit: seconds). Efflux Ratio = Papp (B−A)/Papp (A−B) [formula]
Background: Passage across Caco-2 layers is used to estimate intestinal permeability.

For another series, the system named is Caco-2 monolayer cells. Briefly: Caco-2 membrane permeability assay. It is filed as in vitro ADME. As to conditions: Caco-2, Efflux Ratio = Papp (B-A)/Papp (A-B). As to the method: as §4

As to `Cc1c(CO)c(N)nc2cc(F)c(C(=O)N(C)[C@@H]3COc4cc(C(F)(F)F)ccc43)cc12` [Compound A9a], in the series with HCT116-MTAPdel, the IC50 worked out at 16 nM and the “HCT116 WT/MTAPdel Selectivity” value amounted to 130. Moreover, in series [1], the bioavailability came out at 81%. In series [1] (iv, 2 mg/kg), this compound gave an AUC(0-t) of 19500 ng·h/mL, a C0 of 4010 ng/mL, a clearance of 1.7 mL/min/kg and a half-life of 3.3 h. Moreover, in [1] (po, 10 mg/kg), the exposure AUC(0-t) was found to be 74200 ng·h/mL, the highest level (Cmax) was 5340 ng/mL, the Tmax turned out to be 2 h and the half-life was 5.9 h. The compound further registered an IC50 in the series with HCT116-MTAPwt of 2470 nM. The compound further came in with a CLint scaled at 1 µM in series [2] of 8.9 mL/min/kg. In the series on MDCK-MDR1 cells, the Efflux turned out to be 1.2. Also, in the series with MDR1 (P-gp), the Papp A→B at 2 h, 1 µM stood at 5.1 ×10⁻⁶ cm/s and the Papp B→A at 2 h, 1 µM turned out to be 5.9 ×10⁻⁶ cm/s. Besides, in the series on MDR1, the efflux ratio at 2 h, 1 µM was found to be 1.2. Besides, in series [3], the efflux ratio turned out to be 1.6, the Papp A→B turned out to be 6.9 ×10⁻⁶ cm/s and the Papp B→A is 10.8 ×10⁻⁶ cm/s. Also, the Efflux in the series on Caco-2 monolayer cells is below 2.

For the compound `Cc1c(CO)c(N)nc2cc(F)c(C(=O)N(C)C3COc4cc(C(F)(F)F)ccc43)cc12` (racemic) [Compound A9], in the series on HCT116-MTAPdel, the IC50 worked out at 27 nM and the “HCT116 WT/MTAPdel Selectivity” value is 174. Also, the IC50 in the series on HCT116-MTAPwt turned out to be 4700 nM. Further, in series [2], the CLint scaled at 1 µM was 3.6 mL/min/kg. Besides, in [3], the efflux ratio was determined as 1.2, the Papp A→B was found to be 5.1 ×10⁻⁶ cm/s and the Papp B→A is 5.9 ×10⁻⁶ cm/s. In the series on Caco-2 monolayer cells, the Efflux is recorded as below 2.
